Here are results for one molecule from patent publication EP4624497A1, “PHOSPHOEN[…] PROBE, PREPARATION METHOD THEREFOR AND APPLICATION THEREOF” (priority 2022, dated 2024).

Holding throughout (test): phosphoenolpyruvate titration of purified optical probe (fluorescence ratio)
Common to all, as to assay type: binding
Common to all, as to details: phosphoenolpyruvate 0 to 10 mM, purified probe treated 10 minutes, ex 420/485 nm, em 528 nm

In experiment [1] the target is T1, Thermus thermophilus TtPFK optical probe 254/255-TtPFK-cpYFP variant, TtPFK Q254L/R255L/G256H, cpYFP Y1S (Thermus thermophilus, UniProt P21777, form not given/G256H/Q254L/R255L).
T1 construct: the numbering corresponds to the full length of the phosphoenolpyruvate-sensitive polypeptide; His-tag; made in house; host or cells: E. coli BL21 (DE3)
Here is the method: (§1) • 1. The expression vectors (for example, a phosphoenolpyruvate optical probe expression vector based on pCDF.) were transformed into BL21 (DE3) cells, incubated inverted overnight, and the clones were picked from the plates into 250 mL Erlenmeyer flasks, placed in a shaker at 37 °C and incubated at 220 rpm to OD=0.4-0.8, then 1/1000 (V/V) of IPTG (1 M) was added to induce expression at 18 °C for 24-36 hours. • 2. Upon completion of inducible expression, cells were harvested by centrifugation at 4000 rpm for 30 min, resuspended in 50 mM phosphate buffer and disrupted ultrasonically until the broth were clear, centrifuged at 9600 rpm at 4 °C for 20 min. • 3. The centrifuged supernatant was used to obtain protein by purification through a self-packed nickel column affinity chromatography column, and the protein obtained after nickel column affinity chromatography was further used to obtain protein dissolved in 100 mM HEPES buffer (pH 7.4). • 4. After purified proteins were subjected to SDS-PAGE, probes were diluted to a protein solution having a final concentration of 0.2-5 µM using assay buffer (100 mm HEPES, 100 mM NaCl, pH 7.4). Phosphoenolpyruvate was formulated as a stock solution at a final concentration of 50 mM with the assay buffer (100 mM HEPES, 100 mM NaCl, pH 7.4). • 5. 100 µl 1 µM of protein solution was taken, incubated at 37 °C for 10 min, phosphoenolpyruvate was added for titration, and the fluorescence intensity of 528 nm emission after 420 nm and 485 nm fluorescence excitation of the protein was measured. The fluorescence excitation and emission determination of the samples were done using a multifunctional fluorescence microplate reader. • 6. 100 µl 1 µM of protein solution was taken, incubated at 37 °C for 10 min, and phosphoenolpyruvate was added to determine the absorption and fluorescence spectra of the proteins. Determination of the absorption and fluorescence spectra of the samples was done by spectrophotometer and spectrofluorometer.
(§2) The recombinant plasmids of the mutation library were transformed into BL21 (DE3) to induce expression, and the purified probe protein was subjected to phosphoenolpyruvate-responsive screening, dividing the detection signal of the fusion fluorescent protein containing 2 mM phosphoenolpyruvate by that of the fusion fluorescent protein without phosphoenolpyruvate. […]

Experiment [2] addresses T2, Thermus thermophilus TtPFK optical probe 254/256-TtPFK-I253Q/Q254L/G256V/G257L-cpYFP-Y1T/N246F (Thermus thermophilus, UniProt P21777, form not given/G256V/G257L/I253Q/Q254L).
T2 construct: the numbering corresponds to the full length of the phosphoenolpyruvate-sensitive polypeptide; His-tag; made in house; host or cells: E. coli BL21 (DE3)
How it is done: as §1, §2

In experiment [3] the target is T3, Thermus thermophilus TtPFK optical probe 254/255-TtPFK-cpYFP variant, TtPFK N59H/I253G/Q254L/R255L/G256F, cpYFP Y1P (Thermus thermophilus, UniProt P21777, form not given/G256F/I253G/N59H/Q254L/R255L).
T3 construct: the numbering corresponds to the full length of the phosphoenolpyruvate-sensitive polypeptide; His-tag; made in house; host or cells: E. coli BL21 (DE3)
Here is the method:
as §1
(§3) For the 254/255-TtPFK-cpYFP obtained in Example 2 and the 254/255-TtPFK-I253G/Q254L/R255L/G256F-cpYFP-Y1P, 254/255-TtPFK-I253K/Q254L/R255L/G256F-cpYFP-Y1S and 254/256-TtPFK-I253Q/Q254L/G256V/G257L-cpYFP-Y1T/N246F optical probes obtained in Example 6, amino acid were mutated at positions R21, R25, V54, R55, V57, A58, N59, I60, I61, R155, G186, R212, G213, K214, K215, S216 and L320 in the phosphoenolpyruvate binding pocket, and at positions R72, R163, R172 and R246 in the ATP binding pocket to adjust the affinity of the phosphoenolpyruvate optical probe to phosphoenolpyruvate and the substrate specificity. The probes were linearized by reverse PCR, and the sequences of the mutation sites were introduced into the primers. The obtained PCR products were subjected to homologous recombination to obtain plasmids containing the above site mutations. The mutant plasmids were transformed into BL21 (DE3) for induced expression, and the mutant probe proteins were purified for the phosphoenolpyruvate response test. The detection signal of the fusion fluorescent protein containing 2 mM phosphoenolpyruvate was divided by the detection signal of the fusion fluorescent protein without phosphoenolpyruvate. […]

The target of experiment [4] is T4, Thermus thermophilus TtPFK optical probe 254/256-TtPFK-cpYFP variant, TtPFK V54Q/I253Q/Q254L/G256V/G257L, cpYFP Y1T/N246F (Thermus thermophilus, UniProt P21777, form not given/G256V/G257L/I253Q/Q254L/V54Q).
T4 construct: the numbering corresponds to the full length of the phosphoenolpyruvate-sensitive polypeptide; His-tag; made in house; host or cells: E. coli BL21 (DE3)
How it is done: as §1, §3

Experiment [5] addresses T5, Thermus thermophilus TtPFK optical probe 254/255-TtPFK-cpYFP variant, TtPFK V54K/I253G/Q254L/R255L/G256F, cpYFP Y1P (Thermus thermophilus, UniProt P21777, form not given/G256F/I253G/Q254L/R255L/V54K).
T5 construct: the numbering corresponds to the full length of the phosphoenolpyruvate-sensitive polypeptide; His-tag; made in house; host or cells: E. coli BL21 (DE3)
How it is done:
as §1, §3

Experiment [6] addresses T6, Thermus thermophilus TtPFK optical probe 254/256-TtPFK-cpYFP variant, TtPFK G213T/I253Q/Q254L/G256V/G257L, cpYFP Y1T/N246F (Thermus thermophilus, UniProt P21777, form not given/G213T/G256V/G257L/I253Q/Q254L).
T6 construct: the numbering corresponds to the full length of the phosphoenolpyruvate-sensitive polypeptide; His-tag; made in house; host or cells: E. coli BL21 (DE3)
How it is done: as §1, §3

Experiment [7] has as its target T7, Thermus thermophilus TtPFK optical probe 254/256-TtPFK-cpYFP variant, TtPFK N59D/I253Q/Q254L/G256V/G257L, cpYFP Y1T/N246F (Thermus thermophilus, UniProt P21777, form not given/G256V/G257L/I253Q/N59D/Q254L).
T7 construct: His-tag; made in house; host or cells: E. coli BL21 (DE3)
How it is done: as §1, §3

Experiment [8] has as its target T8, Thermus thermophilus TtPFK optical probe 254/255-TtPFK-cpYFP variant, TtPFK N59H/I253K/Q254L/R255L/G256F, cpYFP Y1S (Thermus thermophilus, UniProt P21777, form not given/G256F/I253K/N59H/Q254L/R255L).
T8 construct: the numbering corresponds to the full length of the phosphoenolpyruvate-sensitive polypeptide; His-tag; made in house; host or cells: E. coli BL21 (DE3)
How it is done:
as §1, §3

T1 sequence (P21777 other isoform, or with tags, fused parts or gaps, stated change not applied): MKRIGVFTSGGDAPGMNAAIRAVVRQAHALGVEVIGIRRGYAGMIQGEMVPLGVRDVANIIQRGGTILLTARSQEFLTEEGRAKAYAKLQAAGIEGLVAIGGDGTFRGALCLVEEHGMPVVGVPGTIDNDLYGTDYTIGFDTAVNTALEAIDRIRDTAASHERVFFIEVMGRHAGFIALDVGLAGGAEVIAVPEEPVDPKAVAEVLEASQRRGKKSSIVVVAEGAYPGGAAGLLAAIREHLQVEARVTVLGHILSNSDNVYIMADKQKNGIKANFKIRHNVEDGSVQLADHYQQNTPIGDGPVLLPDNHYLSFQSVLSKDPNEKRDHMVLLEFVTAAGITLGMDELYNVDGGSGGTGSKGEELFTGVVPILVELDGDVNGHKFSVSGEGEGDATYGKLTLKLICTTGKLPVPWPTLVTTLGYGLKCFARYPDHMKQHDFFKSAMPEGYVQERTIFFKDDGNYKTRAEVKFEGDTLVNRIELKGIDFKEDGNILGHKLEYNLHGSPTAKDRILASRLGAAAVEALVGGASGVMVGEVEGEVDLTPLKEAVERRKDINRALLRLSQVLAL
T8 sequence (P21777 other isoform, or with tags, fused parts or gaps N59H, form open): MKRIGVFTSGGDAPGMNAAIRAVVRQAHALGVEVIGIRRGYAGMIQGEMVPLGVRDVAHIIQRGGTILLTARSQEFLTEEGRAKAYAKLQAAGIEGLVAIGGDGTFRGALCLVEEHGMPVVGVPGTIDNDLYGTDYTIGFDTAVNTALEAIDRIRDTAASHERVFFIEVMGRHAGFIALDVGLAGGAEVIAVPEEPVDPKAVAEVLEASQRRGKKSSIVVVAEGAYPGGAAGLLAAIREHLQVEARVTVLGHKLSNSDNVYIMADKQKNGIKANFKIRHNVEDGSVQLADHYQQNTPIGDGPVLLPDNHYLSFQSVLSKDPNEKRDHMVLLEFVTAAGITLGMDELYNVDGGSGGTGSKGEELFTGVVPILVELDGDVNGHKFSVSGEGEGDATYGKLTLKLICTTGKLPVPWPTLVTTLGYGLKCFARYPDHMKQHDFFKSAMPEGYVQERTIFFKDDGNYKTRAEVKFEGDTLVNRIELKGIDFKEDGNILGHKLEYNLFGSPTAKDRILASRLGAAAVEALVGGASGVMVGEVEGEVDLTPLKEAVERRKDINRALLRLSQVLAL
T6 sequence (P21777 other isoform, or with tags, fused parts or gaps G213T, form open): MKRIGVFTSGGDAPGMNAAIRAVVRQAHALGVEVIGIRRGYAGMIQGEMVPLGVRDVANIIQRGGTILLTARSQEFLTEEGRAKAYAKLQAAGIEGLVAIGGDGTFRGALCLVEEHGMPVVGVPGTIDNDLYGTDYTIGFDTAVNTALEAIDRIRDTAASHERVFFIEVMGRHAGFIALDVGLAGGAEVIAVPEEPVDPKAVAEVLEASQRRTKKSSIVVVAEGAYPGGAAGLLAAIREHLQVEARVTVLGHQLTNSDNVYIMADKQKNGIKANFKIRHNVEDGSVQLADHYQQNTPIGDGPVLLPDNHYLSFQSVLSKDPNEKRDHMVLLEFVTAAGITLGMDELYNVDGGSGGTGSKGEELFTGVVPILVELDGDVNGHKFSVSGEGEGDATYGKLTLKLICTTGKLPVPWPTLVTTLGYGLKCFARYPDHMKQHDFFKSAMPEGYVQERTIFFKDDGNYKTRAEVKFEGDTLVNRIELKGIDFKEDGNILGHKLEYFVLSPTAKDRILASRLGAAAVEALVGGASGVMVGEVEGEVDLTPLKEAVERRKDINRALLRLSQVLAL
T4 sequence (P21777 other isoform, or with tags, fused parts or gaps V54Q, form open): as the sequence (P21777 other isoform, or with tags, fused parts or gaps G213T, form open) above, with V54Q, T213G counted along it
T7 sequence (P21777 other isoform, or with tags, fused parts or gaps N59D, form open): as the sequence (P21777 other isoform, or with tags, fused parts or gaps G213T, form open) above, with N59D, T213G counted along it
T5 sequence (P21777 other isoform, or with tags, fused parts or gaps V54K, form open): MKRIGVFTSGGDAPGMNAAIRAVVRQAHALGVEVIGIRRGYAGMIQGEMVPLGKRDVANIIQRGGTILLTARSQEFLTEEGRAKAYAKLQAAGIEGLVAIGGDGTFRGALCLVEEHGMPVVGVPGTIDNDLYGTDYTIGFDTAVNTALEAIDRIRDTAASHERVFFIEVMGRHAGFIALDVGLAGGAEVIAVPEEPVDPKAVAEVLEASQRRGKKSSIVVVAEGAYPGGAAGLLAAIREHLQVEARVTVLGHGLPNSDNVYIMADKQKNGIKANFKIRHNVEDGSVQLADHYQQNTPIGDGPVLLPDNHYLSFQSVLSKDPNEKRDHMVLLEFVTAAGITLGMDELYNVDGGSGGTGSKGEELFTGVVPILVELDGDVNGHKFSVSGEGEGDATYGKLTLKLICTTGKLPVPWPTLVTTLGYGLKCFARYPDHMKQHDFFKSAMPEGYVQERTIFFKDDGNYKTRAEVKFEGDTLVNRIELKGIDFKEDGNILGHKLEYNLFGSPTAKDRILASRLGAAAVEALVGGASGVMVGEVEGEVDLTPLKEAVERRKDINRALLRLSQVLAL
T2 sequence (P21777 other isoform, or with tags, fused parts or gaps, stated change not applied): as the sequence (P21777 other isoform, or with tags, fused parts or gaps G213T, form open) above, with T213G counted along it
T3 sequence (P21777 other isoform, or with tags, fused parts or gaps N59H, form open): as the sequence (P21777 other isoform, or with tags, fused parts or gaps V54K, form open) above, with K54V, N59H counted along it

In the case of `C=C(OP(=O)(O)O)C(=O)O` [phosphoenolpyruvate, Phosphoenolpyruvate], the Kd in experiment [1] stood at 8.5 µM; in experiment [2], 13.1 µM; in experiment [3] it was 178 µM; in experiment [4] it was 281 µM; in experiment [5], 267 µM; in experiment [6], 199 µM. In addition, the equilibrium dissociation constant (Kd) in experiment [7] turned out to be 374 µM; in experiment [8], 87.7 µM.

As a reminder, the Kd is a measure of binding affinity in units of concentration.
